System: 377384-186-R-J1-PDC complex spheroid viability
Assay: Anticancer human tumor 377384-186-R-J1-PDC patient-derived pancreatic carcinoma cell line growth inhibition [RAS]
Details: for IC50: curve of first compound; for viability, T/C: stronger effect = lower value
Source text: RAS pathway inhibitors in Combinations in Complex Spheroids
A high-throughput screen of multi-cell type tumor spheroids was designed to identify active combinations of RAS pathway inhibitors and targeted small molecules. Complex spheroids include a stromal component modeled by human endothelial cells (HUVEC) and fibroblasts modeled by human mesenchymal stem cells (MSCs). The concentration ranges selected for each drug and investigational agent were based upon clinically achievable concentrations if the clinical Cmax of the agent was known.
Compounds. The drugs and investigational agents: abemaciclib (NSC768073), cobimetinib (NSC768068), divarasib (GDC6063, NSC841802), docetaxel (NSC628503), GDC-1971 (RLY-1971, NSC841576), gemcitabine (NSC613327), inavolisib (NSC800729), ipatasertib (NSC767898), KB-0742 (NSC834161), MRTX-1133 (NSC836407), osimertinib (NSC779217), RMC-4630 (NSC839698), RMC-6236 (NSC851965), RMC-6291 (NSC852671), Ro-3306 (NSC812927), sapanisertib (NSC764658), SN-38 (NSC673596), staurosporine (NSC755774), SY5609 (NSC837396), and tovorafenib (DAY101, NSC766906), were obtained from the National Cancer Institute (NCI) Developmental Therapeutics Program Chemical Repository. The FDA-approved anticancer drug set is available from the NCI Developmental Therapeutics Program. […] The stock solutions were prepared in dimethyl sulfoxide (DMSO, Sigma-Aldrich, St. Louis, MO, cat. D2650) at 800-fold the tested concentration and stored at -70 degrees C prior to their use. All drugs and investigational agents were tested over a range starting from a high concentration at or near the clinical Cmax and decreasing in half-log increments. If the clinical Cmax for an agent had not been determined, the highest concentration tested was 10 microM.
Cell Culture. All cells were maintained in an incubator at 37 degrees C and 5% CO2 with 95% humidity. The PDC lines were cultured according to standard operating procedures established by the NCI PDMR. All PDCs were thawed and cultured in Matrigel-coated flasks prepared with a working solution of 1X Ham's F-12 nutrient mix, without supplementation (Invitrogen, Waltham, MA, cat. 11765054), 100 U/mL penicillin-streptomycin (Invitrogen, cat. 15140122), and 2.5% Matrigel (Corning Inc., Corning, NY, cat. 354248) for the first three passages. The 362531-283-R-J2-PDC and 782815-120-R-J1-PDC lines were cultured in 6C/Colon 1B media, which includes advanced DMEM/F-12 (Thermo Fisher Scientific, cat. 12634028), 10 mM HEPES (Thermo Fisher Scientific, cat. 15630080), 1X GlutaMAX supplement (Thermo Fisher Scientific, cat. 35050061), 0.1 mg/mL primocin (InvivoGen, San Diego, CA, cat. ant-pm-2), 10% defined fetal bovine serum, heat inactivated (HyClone Laboratories Inc., Logan, UT, cat. SH30070.03HI), 50% L-WRN conditioned media (ATCC, cat. CRL-3276), 1.25 mM N-Acetyl-L-cysteine (Sigma-Aldrich, cat. A9165), 10 mM nicotinamide (Sigma-Aldrich, cat. N0636), 1X B-27 supplement (Thermo Fisher Scientific, cat. 17504044), 1X N-2 supplement (Thermo Fisher Scientific, cat. 17502048), 50 ng/mL human EGF (Thermo Fisher Scientific, cat. PHG0311), and 10 microM Y-27632 dihydrochloride (Tocris Bioscience, cat. 1254). The K12877-001-R-J1-PDC line was cultured in 6I media, which includes all 6C/Colon 1B media plus 10 ng/mL human FGF-10 (PeproTech, cat. 100-26), 1 ng/mL human FGF-2 (PeproTech, cat. 100-18B), 1 µM prostaglandin E2 (Tocris Bioscience, cat. 2296), […] hydrocortisone (Sigma-Aldrich, cat. H4001), and […] bovine insulin (Sigma-Aldrich, cat. I6634). The K86415-001-R-J1-PDC line was cultured in 6D media, which includes all 6C/Colon 1B media components minus the L-WRN conditioned media. The 485176-168-R4-J1-PDC was cultured in PANC media, which includes all 6C/Colon 1B media plus 100 ng/mL human FGF-10 (PeproTech, cat. 100-26), 500 nM SB-431542 (Selleckchem, cat. S1067), and 10 nM gastrin (Tocris Bioscience, cat. 3006). […]

[1] = second compound 0.0316 µM, first compound 0.0316 µM
[2] = second compound 0.0316 µM, first compound 0.1 µM
[3] = second compound 0.0316 µM, first compound 0.316 µM
[4] = second compound 0.0316 µM, first compound 1 µM
[5] = second compound 0.0316 µM, first compound 3.16 µM
[6] = second compound 0.0316 µM, first compound 10 µM
[7] = second compound 0.1 µM, first compound 0.0316 µM
[8] = second compound 0.1 µM, first compound 0.1 µM
[9] = second compound 0.1 µM, first compound 0.316 µM
[10] = second compound 0.1 µM, first compound 1 µM
[11] = second compound 0.1 µM, first compound 3.16 µM
[12] = second compound 0.1 µM, first compound 10 µM
[13] = second compound 0.316 µM, first compound 0.0316 µM
[14] = second compound 0.316 µM, first compound 0.1 µM
[15] = second compound 0.316 µM, first compound 0.316 µM
[16] = second compound 0.316 µM, first compound 1 µM
[17] = second compound 0.316 µM, first compound 3.16 µM
[18] = second compound 0.316 µM, first compound 10 µM
[19] = second compound 1 µM, first compound 0.0316 µM
[20] = second compound 1 µM, first compound 0.1 µM
[21] = second compound 1 µM, first compound 0.316 µM
[22] = second compound 1 µM, first compound 1 µM
[23] = second compound 1 µM, first compound 3.16 µM
[24] = second compound 1 µM, first compound 10 µM
[25] = second compound 3.16 µM, first compound 0.0316 µM
[26] = second compound 3.16 µM, first compound 0.1 µM
[27] = second compound 3.16 µM, first compound 0.316 µM
[28] = second compound 3.16 µM, first compound 1 µM
[29] = second compound 3.16 µM, first compound 3.16 µM
[30] = second compound 3.16 µM, first compound 10 µM
[31] = second compound 10 µM, first compound 0.0316 µM
[32] = second compound 10 µM, first compound 0.1 µM
[33] = second compound 10 µM, first compound 0.316 µM
[34] = second compound 10 µM, first compound 1 µM
[35] = second compound 10 µM, first compound 3.16 µM
[36] = second compound 10 µM, first compound 10 µM
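Note: spheroids exposed to compounds for seven days before readout.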

`CC1(O)CCCC1n1c(=O)c(C(F)F)cc2cnc(NC3CCN(S(C)(=O)=O)CC3)nc21` (centres undefined) + C#Cc1c(F)ccc2cc(O)cc(-c3ncc4c(N5CC6CCC(C5)N6)nc(OCC56CCCN5CC(F)C6)nc4c3F)c12 was tested, and the IC50 (second compound 0.0316 µM) was less than 0.0316 µM, the IC50 (second compound 0.1 µM) was less than 0.0316 µM and the IC50 (second compound 0.316 µM) was less than 0.0316 µM. For the same molecule, the IC50 (second compound 1 µM) was less than 0.0316 µM, the IC50 (second compound 3.16 µM) was less than 0.0316 µM and the IC50 (second compound 10 µM) was less than 0.0316 µM. For the same molecule, the viability, T/C [1] was 15.5%, the viability, T/C [2] was 12.7% and the viability, T/C [3] was 10%. The viability, T/C [4] was 11.7%, the viability, T/C [5] was 16% and the viability, T/C [6] was 5.41%. The viability, T/C [7] was 8.93%, the viability, T/C [8] was 6.57% and the viability, T/C [9] was 6.54%. For the same molecule, the viability, T/C [10] was 7.97%, the viability, T/C [11] was 9.01% and the viability, T/C [12] was 4.92%. For the same molecule, the viability, T/C [13] was 5.04%, the viability, T/C [14] was 3.52% and the viability, T/C [15] was 3.71%. For the same molecule, the viability, T/C [16] was 4.22%, the viability, T/C [17] was 6.59% and the viability, T/C [18] was 5.41%. For the same molecule, the viability, T/C [19] was 2.55%, the viability, T/C [20] was 2.39% and the viability, T/C [21] was 2.88%. For the same molecule, the viability, T/C [22] was 3.55%, the viability, T/C [23] was 4.3% and the viability, T/C [24] was 5.91%. It also gave a viability, T/C [25] of 2%, a viability, T/C [26] of 2.27% and a viability, T/C [27] of 3.01%. For the same molecule, the viability, T/C [28] was 3.27%, the viability, T/C [29] was 3.34% and the viability, T/C [30] was 6.51%. It also gave a viability, T/C [31] of 1.76%, a viability, T/C [32] of 1.46% and a viability, T/C [33] of 1.91%. For the same molecule, the viability, T/C [34] was 2%, the viability, T/C [35] was 1.28% and the viability, T/C [36] was 2.73%.

For `CCC(CC)c1cc(NC2CCC(N)C2)n2nccc2n1` (centres undefined) + C#Cc1c(F)ccc2cc(O)cc(-c3ncc4c(N5CC6CCC(C5)N6)nc(OCC56CCCN5CC(F)C6)nc4c3F)c12, the IC50 (second compound 0.0316 µM) was less than 0.0316 µM, the IC50 (second compound 0.1 µM) was less than 0.0316 µM and the IC50 (second compound 0.316 µM) was less than 0.0316 µM. It also gave an IC50 (second compound 1 µM) of less than 0.0316 µM, an IC50 (second compound 3.16 µM) of less than 0.0316 µM and an IC50 (second compound 10 µM) of less than 0.0316 µM. For the same molecule, the viability, T/C [1] was 27.3%, the viability, T/C [2] was 24.2% and the viability, T/C [3] was 22.7%. The viability, T/C [4] was 16%, the viability, T/C [5] was 1.58% and the viability, T/C [6] was 5.35%. It also gave a viability, T/C [7] of 10.8%, a viability, T/C [8] of 12.2% and a viability, T/C [9] of 7.8%. It also gave a viability, T/C [10] of 9.56%, a viability, T/C [11] of 1.88% and a viability, T/C [12] of 5.23%. It also gave a viability, T/C [13] of 5.57%, a viability, T/C [14] of 5.89% and a viability, T/C [15] of 4.79%. For the same molecule, the viability, T/C [16] was 4.23%, the viability, T/C [17] was 1.7% and the viability, T/C [18] was 5.13%. It also gave a viability, T/C [19] of 3.15%, a viability, T/C [20] of 3.52% and a viability, T/C [21] of 2.78%. It also gave a viability, T/C [22] of 3.71%, a viability, T/C [23] of 2.1% and a viability, T/C [24] of 6.67%. The viability, T/C [25] was 2.7%, the viability, T/C [26] was 2.53% and the viability, T/C [27] was 2.14%. For the same molecule, the viability, T/C [28] was 2.51%, the viability, T/C [29] was 1.88% and the viability, T/C [30] was 6.5%. It also gave a viability, T/C [31] of 1.53%, a viability, T/C [32] of 1.24% and a viability, T/C [33] of 1.12%. For the same molecule, the viability, T/C [34] was 1.66%, the viability, T/C [35] was 1.33% and the viability, T/C [36] was 3.5%.
